PubChem BioAssay (NCI)
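Results reflect a 48-hour exposure of cells in 96-well plates to compound at five concentrations. Here, GI50 denotes the concentration required for 50% inhibition of growth. TGI marks complete inhibition of growth.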

Experiments:
Experiment in all cases: inhibition of tumour cell growth, NCI panel, 48 h
HCT-15 colon = tested on: HCT-15 colon
SNB-19 CNS = tested on: SNB-19 CNS
A498 renal = tested on: A498 renal
HL-60(TB) leukemia = tested on: HL-60(TB) leukemia
MOLT-4 leukemia = tested on: MOLT-4 leukemia
HCC-2998 colon = tested on: HCC-2998 colon
HOP-92 NSCLC = tested on: HOP-92 NSCLC
OVCAR-8 ovarian = tested on: OVCAR-8 ovarian
SNB-75 CNS = tested on: SNB-75 CNS
EKVX NSCLC = tested on: EKVX NSCLC
ACHN renal = tested on: ACHN renal
SN12C renal = tested on: SN12C renal
BT-549 breast = tested on: BT-549 breast
OVCAR-4 ovarian = tested on: OVCAR-4 ovarian
SK-OV-3 ovarian = tested on: SK-OV-3 ovarian
TK-10 renal = tested on: TK-10 renal
SF-268 CNS = tested on: SF-268 CNS
786-0 renal = tested on: 786-0 renal
U251 CNS = tested on: U251 CNS
SF-539 CNS = tested on: SF-539 CNS
A549 NSCLC = tested on: A549 NSCLC
IGROV1 ovarian = tested on: IGROV1 ovarian
KM12 colon = tested on: KM12 colon
COLO 205 colon = tested on: COLO 205 colon
NCI-H522 lung = tested on: NCI-H522 lung
RXF 393 renal = tested on: RXF 393 renal
NCI-H23 lung = tested on: NCI-H23 lung
CAKI-1 renal = tested on: CAKI-1 renal
HCT-116 colon = tested on: HCT-116 colon
CCRF-CEM leukemia = tested on: CCRF-CEM leukemia
MALME-3M melanoma = tested on: MALME-3M melanoma
LOX IMVI melanoma = tested on: LOX IMVI melanoma
T-47D breast = tested on: T-47D breast
MCF7 breast = tested on: MCF7 breast
SK-MEL-5 melanoma = tested on: SK-MEL-5 melanoma
HT29 colon = tested on: HT29 colon
SF-295 CNS = tested on: SF-295 CNS
K-562 leukemia = tested on: K-562 leukemia
DU-145 prostate = tested on: DU-145 prostate
OVCAR-5 ovarian = tested on: OVCAR-5 ovarian
HOP-62 NSCLC = tested on: HOP-62 NSCLC
M14 melanoma = tested on: M14 melanoma
UO-31 renal = tested on: UO-31 renal
SK-MEL-28 melanoma = tested on: SK-MEL-28 melanoma
NCI/ADR-RES ovarian = tested on: NCI/ADR-RES ovarian
RPMI-8226 leukemia = tested on: RPMI-8226 leukemia
SW-620 colon = tested on: SW-620 colon
SK-MEL-2 melanoma = tested on: SK-MEL-2 melanoma
SR leukemia = tested on: SR leukemia
MDA-MB-435 = tested on: MDA-MB-435
UACC-62 melanoma = tested on: UACC-62 melanoma
NCI-H226 lung = tested on: NCI-H226 lung
NCI-H460 lung = tested on: NCI-H460 lung
PC-3 prostate = tested on: PC-3 prostate
MDA-MB-231 breast = tested on: MDA-MB-231 breast
HS 578T breast = tested on: HS 578T breast
UACC-257 melanoma = tested on: UACC-257 melanoma
OVCAR-3 ovarian = tested on: OVCAR-3 ovarian

## O=C(NNc1nc2cc(F)cc(F)c2n2cccc12)c1cnccn1
HCT-15 colon
  GI50: 0.106 µM
  TGI: 21.3 µM
SNB-19 CNS
  GI50: 0.426 µM
  TGI: 16.9 µM
A498 renal
  GI50: 1.37 µM
  TGI: 5.57 µM
HL-60(TB) leukemia
  GI50: 0.263 µM
MOLT-4 leukemia
  GI50: 0.291 µM
  TGI: > 100 µM
HCC-2998 colon
  GI50: 0.564 µM
  TGI: 14.9 µM
HOP-92 NSCLC
  GI50: 0.851 µM
  TGI: 7.35 µM
OVCAR-8 ovarian
  GI50: 0.279 µM
  TGI: 4.91 µM
SNB-75 CNS
  GI50: 1.13 µM
  TGI: 9.37 µM
EKVX NSCLC
  GI50: 0.32 µM
  TGI: 12 µM
ACHN renal
  GI50: 0.239 µM
  TGI: 10.6 µM
SN12C renal
  GI50: 0.641 µM
  TGI: 15 µM
BT-549 breast
  GI50: 1.12 µM
  TGI: 7.68 µM
OVCAR-4 ovarian
  GI50: 0.302 µM
  TGI: 8.99 µM
SK-OV-3 ovarian
  GI50: 0.539 µM
  TGI: 7.27 µM
TK-10 renal
  GI50: 0.613 µM
  TGI: 10.5 µM
SF-268 CNS
  GI50: 0.365 µM
  TGI: 14.5 µM
786-0 renal
  GI50: 0.371 µM
  TGI: 4.02 µM
U251 CNS
  GI50: 0.172 µM
  TGI: 8.92 µM
SF-539 CNS
  GI50: 0.436 µM
  TGI: 10.3 µM
A549 NSCLC
  GI50: 0.288 µM
  TGI: 11.3 µM
IGROV1 ovarian
  GI50: 0.206 µM
  TGI: 10.7 µM
KM12 colon
  GI50: 0.311 µM
  TGI: 12.6 µM
COLO 205 colon
  GI50: 0.324 µM
  TGI: 4.56 µM
NCI-H522 lung
  GI50: 0.392 µM
  TGI: 7.5 µM
RXF 393 renal
  GI50: 0.659 µM
  TGI: 4.77 µM
NCI-H23 lung
  GI50: 0.872 µM
  TGI: 15.8 µM
CAKI-1 renal
  GI50: 0.34 µM
  TGI: 6.66 µM
HCT-116 colon
  GI50: 0.297 µM
  TGI: 6.79 µM
CCRF-CEM leukemia
  GI50: 0.163 µM
  TGI: > 100 µM
MALME-3M melanoma
  GI50: 0.904 µM
  TGI: 10.4 µM
LOX IMVI melanoma
  GI50: 0.211 µM
  TGI: 5.93 µM
T-47D breast
  GI50: 0.403 µM
  TGI: 12.6 µM
MCF7 breast
  GI50: 0.353 µM
  TGI: 7.61 µM
SK-MEL-5 melanoma
  GI50: 1.05 µM
  TGI: 5.76 µM
HT29 colon
  GI50: 0.571 µM
  TGI: 8.73 µM
SF-295 CNS
  GI50: 0.25 µM
  TGI: 6.45 µM
K-562 leukemia
  GI50: 0.364 µM
  TGI: > 100 µM
DU-145 prostate
  GI50: 0.457 µM
  TGI: 13.7 µM
OVCAR-5 ovarian
  GI50: 0.715 µM
  TGI: 14.4 µM
HOP-62 NSCLC
  GI50: 0.147 µM
  TGI: 4.17 µM
M14 melanoma
  GI50: 0.279 µM
  TGI: 2.85 µM
UO-31 renal
  GI50: 0.107 µM
  TGI: 2.93 µM
SK-MEL-28 melanoma
  GI50: 0.549 µM
  TGI: 13.5 µM
NCI/ADR-RES ovarian
  GI50: 0.278 µM
  TGI: 5.22 µM
RPMI-8226 leukemia
  GI50: 0.379 µM
  TGI: > 100 µM
SW-620 colon
  GI50: 0.402 µM
  TGI: 14.4 µM
SK-MEL-2 melanoma
  GI50: 0.893 µM
  TGI: 4.37 µM
SR leukemia
  GI50: 0.0801 µM
  TGI: > 87.8 µM
MDA-MB-435
  GI50: 0.61 µM
  TGI: 13.5 µM
UACC-62 melanoma
  GI50: 0.407 µM
  TGI: 3.85 µM
NCI-H226 lung
  GI50: 1.12 µM
  TGI: 6.89 µM
NCI-H460 lung
  GI50: 0.178 µM
  TGI: 3.01 µM
PC-3 prostate
  GI50: 0.448 µM
  TGI: 13.5 µM
MDA-MB-231 breast
  GI50: 0.807 µM
  TGI: 12.3 µM
HS 578T breast
  GI50: 1.74 µM
  TGI: 24.1 µM
UACC-257 melanoma
  GI50: 0.587 µM
  TGI: 3.43 µM

## COc1ccc(-c2nc3cc(Cl)c(Cl)cc3n2CC(=O)N=Nc2c(O)[nH]c3ccc(Br)cc23)cc1
SNB-75 CNS
  GI50: 2.11 µM
  TGI: 12.4 µM
BT-549 breast
  GI50: 6.73 µM
  TGI: > 100 µM
SF-268 CNS
  GI50: 3.62 µM
  TGI: > 100 µM
RXF 393 renal
  GI50: 1.87 µM
  TGI: 3.71 µM
NCI-H226 lung
  GI50: 3.75 µM
  TGI: > 100 µM
HS 578T breast
  GI50: 2.05 µM
  TGI: 5.72 µM

## Cc1ccc2c(n1)C(=O)C(Cl)=C(Nc1cc(C(F)(F)F)cc(C(F)(F)F)c1)C2=O
SNB-19 CNS
  GI50: 13.8 µM
  TGI: 40.1 µM
A498 renal
  GI50: 8.72 µM
  TGI: 22 µM
HL-60(TB) leukemia
  GI50: 0.547 µM
  TGI: 2.58 µM
MOLT-4 leukemia
  GI50: 0.305 µM
  TGI: 1.05 µM
HCC-2998 colon
  GI50: 4.61 µM
  TGI: 18.2 µM
HOP-92 NSCLC
  GI50: 1.57 µM
  TGI: 3.51 µM
OVCAR-8 ovarian
  GI50: 4.16 µM
  TGI: 24.2 µM
SNB-75 CNS
  GI50: 9.23 µM
  TGI: 22.6 µM
EKVX NSCLC
  GI50: 2.22 µM
  TGI: 5.45 µM
ACHN renal
  GI50: 1.92 µM
  TGI: 3.42 µM
SN12C renal
  GI50: 4.55 µM
  TGI: > 100 µM
BT-549 breast
  GI50: 1.86 µM
  TGI: 6.61 µM
OVCAR-4 ovarian
  GI50: 1.44 µM
  TGI: 2.79 µM
SK-OV-3 ovarian
  GI50: 13.9 µM
  TGI: 27.1 µM
TK-10 renal
  GI50: 1.88 µM
  TGI: 3.31 µM
SF-268 CNS
  GI50: 6.38 µM
  TGI: 23.5 µM
786-0 renal
  GI50: 1.72 µM
  TGI: 3.36 µM
U251 CNS
  GI50: 10.3 µM
  TGI: 23.5 µM
SF-539 CNS
  GI50: 5.4 µM
  TGI: 18.3 µM
A549 NSCLC
  GI50: 16.9 µM
  TGI: 38 µM
IGROV1 ovarian
  GI50: 3.6 µM
  TGI: 14.1 µM
KM12 colon
  GI50: 12.3 µM
  TGI: 28.9 µM
COLO 205 colon
  GI50: 1.93 µM
  TGI: 4.31 µM
NCI-H522 lung
  GI50: 1.95 µM
  TGI: 5.97 µM
RXF 393 renal
  GI50: 1.46 µM
  TGI: 2.82 µM
NCI-H23 lung
  GI50: 1.92 µM
  TGI: 4.94 µM
CAKI-1 renal
  GI50: 1.5 µM
  TGI: 2.94 µM
HCT-116 colon
  GI50: 1.43 µM
  TGI: 2.94 µM
CCRF-CEM leukemia
  GI50: 0.651 µM
  TGI: 3.59 µM
MALME-3M melanoma
  GI50: 1.67 µM
  TGI: 3.58 µM
LOX IMVI melanoma
  GI50: 1.6 µM
  TGI: 3.49 µM
T-47D breast
  GI50: 1.63 µM
  TGI: 5.18 µM
MCF7 breast
  GI50: 2.13 µM
  TGI: 5.45 µM
SK-MEL-5 melanoma
  GI50: 3.28 µM
  TGI: 11.4 µM
HT29 colon
  GI50: 2.39 µM
  TGI: 6.18 µM
SF-295 CNS
  GI50: 12.6 µM
  TGI: 25.8 µM
DU-145 prostate
  GI50: 2.6 µM
  TGI: 6.47 µM
OVCAR-5 ovarian
  GI50: 19.4 µM
  TGI: 38.4 µM
HOP-62 NSCLC
  GI50: 15.9 µM
  TGI: 31.3 µM
M14 melanoma
  GI50: 4.24 µM
  TGI: 17.9 µM
UO-31 renal
  GI50: 1.41 µM
  TGI: 2.83 µM
SK-MEL-28 melanoma
  GI50: 2.21 µM
  TGI: 4.29 µM
NCI/ADR-RES ovarian
  GI50: 2.74 µM
  TGI: 8.6 µM
RPMI-8226 leukemia
  GI50: 1.58 µM
  TGI: 5.14 µM
SW-620 colon
  GI50: 2.29 µM
  TGI: 5.32 µM
SK-MEL-2 melanoma
  GI50: 3.96 µM
  TGI: 15.6 µM
SR leukemia
  GI50: 0.31 µM
  TGI: 1.98 µM
OVCAR-3 ovarian
  GI50: 1.61 µM
  TGI: 3.02 µM
MDA-MB-435
  GI50: 4.67 µM
  TGI: 16.4 µM
UACC-62 melanoma
  GI50: 4.97 µM
  TGI: 19.3 µM
NCI-H226 lung
  GI50: 5.36 µM
  TGI: 41.5 µM
NCI-H460 lung
  GI50: 13.7 µM
  TGI: 36.8 µM
PC-3 prostate
  GI50: 5.29 µM
  TGI: 20 µM
MDA-MB-231 breast
  GI50: 3.54 µM
  TGI: 14 µM
HS 578T breast
  GI50: 10.6 µM
  TGI: 76.4 µM
UACC-257 melanoma
  GI50: 1.68 µM
  TGI: 3.3 µM
